How the values were obtained:
[1] = Fluorescence (luminescent) lifetime of dyes and conjugates; type: physicochemical; details: for luminescent lifetime (τ): solvent not stated
From the text: Typical assays based on the measurement of the fluorescence lifetime as a parameter include for example FRET (fluorescence resonance energy transfer) assays. The binding between a fluorescent donor labeled species (typically an antigen, or a ligand) and a fluorescent acceptor labeled species may be accompanied by a change in the intensity and/or the fluorescence lifetime. The lifetime can be measured using intensity-(Time corrlated single photon counting TCSPC) or phase-modulation-based methods (J. R. LAKOWICZ, PRINCIPLES OF FLUORESCENCE SPECTROSCOPY (2nd Ed. 1999)).

[2] = Fluorescence quantum yield (QY); type: physicochemical
[3] = Absorption and emission maxima (spectral properties); type: physicochemical
From the text: The synthesis of representative dyes is provided in the Examples Section. The structures, absorption and emission data as well as the luminescent lifetime in different solvents of specific dyes are given in Table 1.

[4] = cited from earlier work

Row | Compound | Lifetime [ns] ([1]; Ethanol (Table 1)) | Lifetime [ns] ([1]; Water (Table 1)) | λ(abs) [nm] ([3]; Ethanol) | λ(fl) [nm] ([3]; Ethanol) | λ(abs) [nm] ([3]; Water) | λ(fl) [nm] ([3]; Water) | (QY [%]) ([2]; Water (Table 1)) | (QY [%]) ([2]; Ethanol (Table 1)) | other results
1 | CN(C)c1ccc2c3c(cccc13)C(=O)N(c1ccccc1)C2=O [Dye 1, phenylimide of 4-dimethyl aminonaphthalic acid] |  |  |  |  |  |  |  |  | Lifetime [ns] ([1]; Ethanol): <<1 ns; lifetime in ethanol ([1]; Ethanol): < 1 ns; lifetime in water compared with ethanol ([1]; Water): even further reduced; (QY [%]) ([2]; Ethanol): 0.5%; Q.Y. in water compared with ethanol ([2]; Water): even further reduced
2 | CN1C[N+](C)(C)Cc2cc3c4c(cccc4c21)C(=O)N(c1ccc(C(=O)O)cc1)C3=O.[Cl-] [Dye 3, 5-(4-carboxyphenyl)-9,9,11-trimethyl-4,6-dioxo-5,6,8,9,10,11-hexahydro-4H-isoquino[4,5-g,h]quinazolin-9-ium chloride] |  |  |  |  |  |  |  |  | lifetime in water ([1]; Water): 9.3 ns; overall decrease in fluorescence lifetime ([1]; free dye in water vs IgG conjugate at D/P about 8): 10%; lifetime labeled to IgG ([1]; labeled to IgG at a D/P ratio of about 1): 8.9 ns; lifetime labeled to IgG ([1]; labeled to IgG, D/P ratio of about 8): 8.4 ns
3 | CN1C[N+](C)(C)Cc2c1cc1c3c(cccc23)C(=O)N(CCCCCC(=O)O)C1=O [Dye 4a] |  |  |  |  |  |  |  |  | luminescent lifetime (τ) [1]: 26 ns
4 | CN1C[N+](C)(C)Cc2c1cc1c3c(cccc23)C(=O)N(c2ccccc2)C1=O [Dye 6, 8,10,10-trimethyl-4,6-dioxo-5-phenyl-5,6,8,9,10,11-hexahydro-4H-isoquino[5,4-fg]quinazolin-10-ium hexafluorophosphate] | 23.3 ns | 22.9 ns | 414 nm | 513 nm | 426 nm | 545 nm |  | 51% | luminescent lifetime (τ) [1]: around 23 ns
5 | CN1C[N+](C)(C)Cc2c1ccc1cc3ccccc3cc21 [Dye 13, 2,2,4-trimethyl-1,2,3,4-tetrahydronaphtho[2,3-f]quinazolin-2-ium hexafluorophosphate] |  | 20.9 ns | 395 nm | 462 nm | 398 nm | 481 nm | 40% | 30% | lifetime in water ([1]; Water): 20 ns
6 | fluorescein-isothiocyanate [FITC] |  |  |  |  |  |  |  |  | lifetime losses when covalently labeled to proteins ([4]; D/P ~ 8, Lakowicz et al. 2004): ~40%; lifetime τ ([4]; free label): 4.0 ns

Now from value to compound, other results behind:

Row | Lifetime [ns] ([1]; Ethanol (Table 1)) | Lifetime [ns] ([1]; Water (Table 1)) | λ(abs) [nm] ([3]; Ethanol) | λ(fl) [nm] ([3]; Ethanol) | λ(abs) [nm] ([3]; Water) | λ(fl) [nm] ([3]; Water) | (QY [%]) ([2]; Water (Table 1)) | Compound | (QY [%]) ([2]; Ethanol (Table 1)) | other results
7 | 8.0 ns | 9.3 ns | 390 nm | 500 nm | 404 nm | 518 nm |  | CN1C[N+](C)(C)Cc2cc3c4c(cccc4c21)C(=O)N(c1ccc(C(=O)ON2C(=O)CCC2=O)cc1)C3=O [Dye 3-NHS] |  | 
8 |  | 9.4 ns |  |  | 405 nm | 515 nm | 72% | CN1C[N+](C)(C)Cc2cc3c4c(cccc4c21)C(=O)N(c1ccc(C(=O)O)cc1)C3=O.[Cl-] [Dye 3a] |  | 
9 | 8.5 ns | 9.4 ns | 393 nm | 498 nm | 405 nm | 515 nm | 72% | CN1C[N+](C)(C)Cc2cc3c4c(cccc4c21)C(=O)N(c1ccccc1)C3=O.[Cl-] [Dye 5, 9,9,11-trimethyl-4,6-dioxo-5-phenyl-5,6,8,9,10,11-hexahydro-4H-isoquino[4,5-g,h]quinazolin-9-ium chloride] | 58% | Lifetime [ns] ([1]; DMF): 9.0 ns; Lifetime [ns] ([1]; Ethanol): 8.5 ns; Lifetime [ns] ([1]; Water): 9.4 ns; (QY [%]) ([2]; Ethanol): 58%; (QY [%]) ([2]; Water): 75%; λ(abs) [nm] ([3]; DMF): 393 nm; λ(fl) [nm] ([3]; DMF): 500 nm; melting point: 235 °C
10 | 7.8 ns | 5.7 ns | 436 nm | 584 nm | 449 nm | 600 nm | 7% | CCOC(=O)c1c(C)nn2c(=O)c3cccc4c5c(cc(c43)c12)C[N+](C)(C)CN5C.[Cl-] [Dye 8] | 44% | Lifetime [ns] ([1]; Water + BSA): 6.1 ns; λ(abs) [nm] ([3]; Water + BSA): 449 nm; λ(fl) [nm] ([3]; Water + BSA): 600 nm

From US9034655B2, “Highly water-soluble, cationic luminescent labels” (SETA BioMedicals, LLC, priority 2006, dated 2015)
